SMILES strings stand for the structures. Values joined by “and” are separate entries in the source; they are usually repeats but may differ in a detail not shown here. Equal entries are not always repeated. “Also recorded” adds a separate entry of the source.

For one assay, the system named is ChE. Put plainly: Example 2: total ChE activity in cortex, hippocampus and plasma after ladostigil treatment. It counts as in vivo, rats. The method, then: (§1) The effect of chronic ladostigil treatment on ChE activity in the cortex and hippocampus of rats was determined one week after icv STZ in 12 rats (3 treated with water and 9 with ladostigil). The effect of acute treatment with ladostigil 1 or 17 mg/kg was determined 2 hrs after drug administration. […] The brain was rapidly removed, washed with saline on ice and the cortex, hippocampus and striatum dissected out, quickly weighed and stored at −70° C. until assay. Total ChE activity in the cortex and hippocampus was measured as described in Wang et al., Gender differences in the effect of rivastigmine on brain cholinesterase activity and cognitive function in rats, Neuropharmacology (2000) 39:497-506, using the spectrophotometric method of Ellman et al., A new and rapid colorimetric determination of acetylcholinesterase activity, Biochem. Pharmacol. (1961) 7:88-95 with acetylthiocholine (Sigma Ltd) as a substrate using homogenate of 100 mg tissue in 1 ml phosphate buffer. To determine only butyrylcholinesterase (BuChE) activity the amounts of tissue/ml of buffer were increased 3-fold and butyrylthiocholine (Sigma Ltd) was used as a substrate. MAO A and B activity was measured in homogenates of striatum as described in Weinstock et al., Limited potentiation of blood pressure response to oral tyramine by brain-selective monoamine oxidase A-B inhibitor, TV-3326 in conscious rabbits, Neuropharmacology (2002) 43:999-1005.

A further assay addresses T1, MAO-B (Rattus norvegicus, UniProt P19643).
T1 construct: from tissue; host or cells: striatum homogenate of dosed Sprague-Dawley rats
T1 sequence (P19643 1-520): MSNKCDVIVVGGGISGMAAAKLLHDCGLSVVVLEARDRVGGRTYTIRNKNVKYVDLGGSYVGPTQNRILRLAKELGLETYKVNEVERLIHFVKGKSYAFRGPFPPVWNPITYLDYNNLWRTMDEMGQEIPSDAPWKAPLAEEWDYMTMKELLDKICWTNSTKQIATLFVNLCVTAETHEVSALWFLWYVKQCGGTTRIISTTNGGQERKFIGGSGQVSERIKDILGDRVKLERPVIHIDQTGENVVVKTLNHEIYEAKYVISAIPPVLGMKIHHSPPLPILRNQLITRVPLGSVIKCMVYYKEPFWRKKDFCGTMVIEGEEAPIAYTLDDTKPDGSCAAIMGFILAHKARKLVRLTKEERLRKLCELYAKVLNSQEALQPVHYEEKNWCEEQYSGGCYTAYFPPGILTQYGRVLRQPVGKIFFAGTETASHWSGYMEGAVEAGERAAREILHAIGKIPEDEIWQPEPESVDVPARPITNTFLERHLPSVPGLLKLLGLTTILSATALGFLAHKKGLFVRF
Briefly: Example 2: MAO-B activity in homogenates of striatum. As to conditions: chronic 1 mg/kg. It counts as in vivo, rats. The method, then: as §1, with “To determine only butyrylcholinesterase (BuChE) activity the amounts of tissue/ml of buffer were increased 3-fold and butyrylthiocholine (Sigma Ltd) was used as a substrate.” left out

In assay [1] the test system is rats injected icv with STZ (episodic memory). Put plainly: Object recognition test after icv STZ. As to conditions: for Effect on the deficit in episodic memory: four weeks after icv STZ. It is filed as in vivo, Sprague-Dawley rats. The method, then:
Male Sprague-Dawley rats (63) weighing 320-340 g, aged 4 months, were anesthetized by an intraperitoneal injection of Equithesin 0.3 ml/kg. STZ (0.5 mg) dissolved in 2 μl artificial cerebrospinal fluid (CSF) was injected into each lateral ventricle of 45 rats. The stereotaxic co-ordinates for icv injection were: 0.9 mm posterior, 1.8 mm lateral and 3.8 mm ventral from the bregma level. Control rats (18) received a bilateral injection of 2 μl artificial CSF. […] The remaining 20 rats received 1 ml/kg water. The rats were housed two per cage with free access to food and water until the behavioral, enzymatic and cytochemical measurements were completed.
Episodic memory in the object recognition test was still intact 2 but not 4 weeks after a single icv STZ injection (Table 3). Therefore, rats that were treated with ladostigil or water were tested for object and place recognition 4 weeks after icv injection of STZ or CSF. The object recognition test measured non-spatial working memory with characteristics of episodic memory that is primarily affected in senile dementia (Bartolini et al., Aniracetam restores object recognition impaired by age, scopolamine, and nucleus basalis lesions, Pharmacol. Biochem. Behav. (1996) 53:277-83). The test depended on intact cortical and hippocampal function (Winters et al., Double dissociation between the effects of peri-postrhinal cortex and hippocampal lesions on tests of object recognition and spatial memory: heterogeneity of function within the temporal lobe, J. Neuroscience (2004) 24:5901-8), while place recognition, another manifestation of spatial memory, was dependent on intact hippocampal function. The experiments were carried out as previously described in Mumby et al., Hippocampal damage and exploratory preferences in rats: memory for objects, places, and contexts, Learning Memory (2002) 9:49-57, in a box made of dark Perspex (60×60 cm and 50 cm high), covered with a dark Perspex lid. In order to increase their interest in the objects, rats were familiarized with the test arena by placing them in it for 5 min on each of 3 successive days and the object recognition test performed on the 4th day. Two identical objects were placed in the arena and the time taken by the rats to explore each object during a period of 3 min was recorded. One hour later, the objects were replaced by one that was identical to the two used in the first test and a second one that was different from them and the time taken to explore each of them was again recorded. The following day, the place recognition test was carried out with two identical objects as described above but different from those used previously. One hour later, the one of the two objects was moved to another position in the arena as described in Mumby et al., supra.
Group means of 3 measures in the object and place recognition tests, duration of exploration in first and second phases and discrimination index were submitted to one way ANOVA. Mean daily escape latencies for trial 1 and trial 2 in the MWM in each group were analyzed by repeated measures ANOVA for DAY and GROUP followed by Duncan's post hoc test where appropriate. Histological data were analyzed by univariate ANOVA followed by Duncan's post hoc test. All values represent means±SEM.

Assay [2] concerns aged rats (spatial learning). Briefly: Example 3: spatial learning of aged rats in Morris water maze. It is filed as in vivo, Wistar rats. The conditions noted are these: 1 mg/kg/day in drinking fluid for four months from age 16 months. The method, then: Experiments were performed in 30 male rats of the Wistar strain. […] The rats were housed in pairs at an ambient temperature of 21° C. They were weighed once weekly and their fluid intake measured daily for two weeks and then twice weekly for the remaining 4 months. Ten of the rats were started on ladostigil 1 mg/kg/day in the drinking fluid when aged 16 months and given the drug for four months. The remaining 10 rats of the same age were given regular drinking water. At the end of the four months spatial memory of these 20 rats and of another 10 aged 3 months was tested in the Morris water maze as previously described (Shoham et al, 2006).

Consider `C#CCN[C@@H]1CCc2ccc(OC(=O)N(C)CC)cc21` [ladostigil, R(+)-6-(N-methyl,N-ethyl-carbamoyloxy)-N′-propargyl-1-aminoindan], for which the “ChE (%) inhibition” value in the assay with ChE (Cortex, 60 min after last dose, chronic 1 mg/kg, seven days after icv STZ) worked out at 16.1 ± 4.7 %; in the assay on ChE (Cortex, 120 min after last dose, chronic 1 mg/kg, seven days after icv STZ) it was 23.6 ± 3.1 %; with ChE (Hippocampus, 60 min, chronic 1 mg/kg) it was 4.9 ± 2.6%; with ChE (Hippocampus, 120 min, chronic 1 mg/kg), 5.9 ± 3.2%; with ChE (Plasma, 120 min, chronic 1 mg/kg), 20 ± 2%. Moreover, the “ChE inhibition in the hippocampus or plasma” value with ChE (acute administration 1 mg/kg) is “not in the hippocampus or plasma”. The “ChE inhibition in both brain regions and in plasma” value in the assay on ChE (acute administration 17 mg/kg, 17 mg/kg) was 40-42% and 40%. Moreover, the “Inhibition of ChE activity in the plasma” value in the assay with ChE (chronic 1 mg/kg) came out at 20%. In the assay on ChE (chronic 1 mg/kg), the “Inhibition of ChE in the hippocampus” value was “no ChE inhibition occurred; also recorded: no significant AChE inhibition occurred”. Besides, the “Inhibition of total ChE activity in the cortex” value with ChE (chronic 1 mg/kg, seven days after icv STZ, 1 or 2 hrs after the last dose) was 24% and 28% and ~20%. Further, the “MAO-B (%) inhibition” value on MAO-B (60 min) came out at 11.3 ± 1.4 %; on MAO-B (120 min (2 hrs)), 15%. In assay [1] (17 mg/kg single dose, two days later when ChE was no longer inhibited), the “Deficit in episodic memory two days after dose” value is listed as “returned two days later”. Moreover, the “Discrimination index, Object” value in assay [1] (STZ (4 weeks) + 17 mg/kg acute) was 0.348 ± 0.112; in assay [1] (STZ (4 weeks) + 17 mg/kg acute, two days later), −0.112 ± 0.08; in assay [1] (STZ (4 weeks) + ladostigil 1 mg/kg acute) it was 0.010 ± 0.08; in assay [1] (STZ (4 weeks) + ladostigil 1 mg/kg chronic, mean ± s.e.m.), 0.238 ± 0.05. In assay [1] (icv STZ with chronic ladostigil, significantly >0, P<0.05), the “Discrimination in object recognition test” value was “significant discrimination index”. Also, the entries for the “Effect on the deficit in episodic memory” value in assay [1] (single dose 17 mg/kg) and in assay [1] (single dose of 1 mg/kg) were “the memory deficit was abolished” and “no effect”, respectively. In addition, in assay [2], the “Difference in spatial learning between young and old rats (Morris water maze)” value was “substantially abolished”.
